# Results taken from PubChem BioAssay AID180 (DTP/NCI, 2004).
# “And” between values parts separate entries of the source, which are not always exact repeats. Identical values can stand only once.
# System: BDF1 mice, Adenocarcinoma 755 s.c., tumor weight T/C
# Test: NCI In Vivo Anticancer Drug Screen. Data for tumor model Adenocarcinoma 755 (subcutaneous) in B6D2F1 (BDF1) mice
# Settings: endpoint: mean tumor weight, higher = larger tumour
# Experimental: The antitumor activity of compounds was measured in mice bearing transplantable tumors. Survival or tumor size were measured and the results are expressed as the measurement made in the treated group (T) divided by the measurement made in the vehicle treated control group (C). The tumor model used in this assay is Adenocarcinoma 755 (subcutaneous) in B6D2F1 (BDF1) mice
smiles,measurement,setting,value
O=S1(=O)OCc2ccccc21,T/C,"dose: 27.5 mg/kg/injection, schedule: Q01DX011 (ip), vehicle: carboxymethylcellulose (CMC)",113 % of control
same,T/C,"dose: 27.5 mg/kg/injection, schedule: Q01DX011 (ip), vehicle: methylcellulose (MC)",118 % of control
same,T/C,"dose: 55.0 mg/kg/injection, schedule: Q01DX011 (ip), vehicle: carboxymethylcellulose (CMC)",68 % of control
same,T/C,"dose: 55.0 mg/kg/injection, schedule: Q01DX011 (ip), vehicle: methylcellulose (MC)",98 % of control
same,T/C,"dose: 110.0 mg/kg/injection, schedule: Q01DX011 (ip), vehicle: methylcellulose (MC)",17 % of control
CS(=O)(=O)OCCCCOS(C)(=O)=O,T/C,"dose: 3.75 mg/kg/injection, schedule: Q03DX004 (ip), vehicle: saline",111 % of control
same,T/C,"dose: 5.0 mg/kg/injection, schedule: Q#A X022 (ip), vehicle: saline",54 % of control
same,T/C,"dose: 6.63 mg/kg/injection, schedule: Q01DX011 (ip), vehicle: carboxymethylcellulose (CMC)",95 % of control
same,T/C,"dose: 6.66 mg/kg/injection, schedule: Q01DX011 (ip), vehicle: carboxymethylcellulose (CMC)",99 % of control
same,T/C,"dose: 9.36 mg/kg/injection, schedule: Q01DX011 (ip), vehicle: carboxymethylcellulose (CMC)",66 % of control
same,T/C,"dose: 10.0 mg/kg/injection, schedule: Q01DX006 (iv), vehicle: saline",117 % of control
same,T/C,"dose: 10.0 mg/kg/injection, schedule: Q01DX011 (im), vehicle: saline",36 % of control
same,T/C,"dose: 10.0 mg/kg/injection, schedule: Q01DX011 (ip), vehicle: carboxymethylcellulose (CMC)",62 % of control
same,T/C,"dose: 10.0 mg/kg/injection, schedule: Q01DX011 (ip), vehicle: saline",71 % of control
same,T/C,"dose: 10.0 mg/kg/injection, schedule: Q01DX011 (oral), vehicle: saline",81 % of control
same,T/C,"dose: 10.0 mg/kg/injection, schedule: Q01DX011 (sc), vehicle: saline",35 % of control
same,T/C,"dose: 10.0 mg/kg/injection, schedule: Q#A X022 (ip), vehicle: saline",80 % of control
same,T/C,"dose: 12.5 mg/kg/injection, schedule: Q01DX011 (ip), vehicle: methylcellulose (MC)",119 % of control
same,T/C,"dose: 13.25 mg/kg/injection, schedule: Q01DX011 (ip), vehicle: carboxymethylcellulose (CMC)",101 % of control
same,T/C,"dose: 15.0 mg/kg/injection, schedule: Q03DX004 (ip), vehicle: saline",87 % of control
same,T/C,"dose: 16.75 mg/kg/injection, schedule: Q01DX011 (ip), vehicle: carboxymethylcellulose (CMC)",68 % of control
same,T/C,"dose: 17.5 mg/kg/injection, schedule: Q01DX011 (ip), vehicle: carboxymethylcellulose (CMC)",106 % of control
same,T/C,"dose: 17.87 mg/kg/injection, schedule: Q01DX011 (ip), vehicle: carboxymethylcellulose (CMC)",77 % of control
same,T/C,"dose: 18.73 mg/kg/injection, schedule: Q01DX011 (ip), vehicle: carboxymethylcellulose (CMC)",76 % of control
same,T/C,"dose: 20.0 mg/kg/injection, schedule: Q01DX006 (iv), vehicle: saline",100 % of control
same,T/C,"dose: 20.0 mg/kg/injection, schedule: Q01DX011 (im), vehicle: saline",76 % of control
same,T/C,"dose: 20.0 mg/kg/injection, schedule: Q01DX011 (ip), vehicle: carboxymethylcellulose (CMC)",76 % of control
same,T/C,"dose: 20.0 mg/kg/injection, schedule: Q01DX011 (oral), vehicle: saline",49 % of control
same,T/C,"dose: 20.0 mg/kg/injection, schedule: Q01DX011 (sc), vehicle: saline",104 % of control
same,T/C,"dose: 20.0 mg/kg/injection, schedule: Q#A X022 (ip), vehicle: saline",39 % of control
same,T/C,"dose: 21.2 mg/kg/injection, schedule: Q01DX011 (ip), vehicle: carboxymethylcellulose (CMC)",91 % of control
same,T/C,"dose: 21.32 mg/kg/injection, schedule: Q01DX011 (ip), vehicle: carboxymethylcellulose (CMC)",81 % of control
same,T/C,"dose: 25.0 mg/kg/injection, schedule: Q01DX011 (ip), vehicle: methylcellulose (MC)",77 % of control
same,T/C,"dose: 26.5 mg/kg/injection, schedule: Q01DX011 (ip), vehicle: carboxymethylcellulose (CMC)",26 % of control and 50 % of control
same,T/C,"dose: 26.65 mg/kg/injection, schedule: Q01DX011 (ip), vehicle: carboxymethylcellulose (CMC)",53 % of control and 63 % of control
same,T/C,"dose: 33.5 mg/kg/injection, schedule: Q01DX011 (ip), vehicle: carboxymethylcellulose (CMC)",83 % of control
same,T/C,"dose: 35.0 mg/kg/injection, schedule: Q01DX011 (ip), vehicle: carboxymethylcellulose (CMC)",98 % of control
same,T/C,"dose: 35.33 mg/kg/injection, schedule: Q01DX011 (ip), vehicle: carboxymethylcellulose (CMC)",34 % of control
same,T/C,"dose: 35.5 mg/kg/injection, schedule: Q01DX011 (ip), vehicle: carboxymethylcellulose (CMC)",38 % of control
same,T/C,"dose: 35.75 mg/kg/injection, schedule: Q01DX011 (ip), vehicle: carboxymethylcellulose (CMC)",81 % of control
same,T/C,"dose: 37.45 mg/kg/injection, schedule: Q01DX011 (ip), vehicle: carboxymethylcellulose (CMC)",73 % of control
same,T/C,"dose: 40.0 mg/kg/injection, schedule: Q01DX006 (iv), vehicle: saline",84 % of control
same,T/C,"dose: 40.0 mg/kg/injection, schedule: Q01DX011 (im), vehicle: saline",17 % of control
same,T/C,"dose: 40.0 mg/kg/injection, schedule: Q01DX011 (ip), vehicle: carboxymethylcellulose (CMC)",10 % of control
same,T/C,"dose: 40.0 mg/kg/injection, schedule: Q01DX011 (oral), vehicle: saline",30 % of control and 49 % of control
same,T/C,"dose: 40.0 mg/kg/injection, schedule: Q01DX011 (sc), vehicle: saline",41 % of control and 45 % of control
same,T/C,"dose: 40.0 mg/kg/injection, schedule: Q#A X022 (ip), vehicle: saline",17 % of control
same,T/C,"dose: 50.0 mg/kg/injection, schedule: Q01DX011 (ip), vehicle: methylcellulose (MC)",30 % of control
same,T/C,"dose: 53.0 mg/kg/injection, schedule: Q01DX011 (ip), vehicle: carboxymethylcellulose (CMC)",3 % of control
same,T/C,"dose: 53.3 mg/kg/injection, schedule: Q01DX011 (ip), vehicle: carboxymethylcellulose (CMC)",1 % of control
same,T/C,"dose: 57.96 mg/kg/injection, schedule: Q01DX011 (ip), vehicle: carboxymethylcellulose (CMC)",113 % of control
same,T/C,"dose: 60.0 mg/kg/injection, schedule: Q03DX004 (ip), vehicle: saline",67 % of control and 71 % of control
same,T/C,"dose: 67.0 mg/kg/injection, schedule: Q01DX011 (ip), vehicle: carboxymethylcellulose (CMC)",37 % of control
same,T/C,"dose: 70.0 mg/kg/injection, schedule: Q01DX001 (ip), vehicle: saline",90 % of control
same,T/C,"dose: 70.0 mg/kg/injection, schedule: Q01DX011 (ip), vehicle: carboxymethylcellulose (CMC)",49 % of control
same,T/C,"dose: 70.0 mg/kg/injection, schedule: Q07DX002 (ip), vehicle: saline",99 % of control
same,T/C,"dose: 71.5 mg/kg/injection, schedule: Q01DX011 (ip), vehicle: carboxymethylcellulose (CMC)",58 % of control
same,T/C,"dose: 72.45 mg/kg/injection, schedule: Q01DX011 (ip), vehicle: carboxymethylcellulose (CMC)",29 % of control
same,T/C,"dose: 80.0 mg/kg/injection, schedule: Q01DX006 (iv), vehicle: saline",88 % of control
same,T/C,"dose: 80.0 mg/kg/injection, schedule: Q01DX011 (oral), vehicle: saline",17 % of control and 27 % of control
same,T/C,"dose: 96.6 mg/kg/injection, schedule: Q01DX011 (ip), vehicle: carboxymethylcellulose (CMC)",19 % of control
same,T/C,"dose: 120.0 mg/kg/injection, schedule: Q03DX004 (ip), vehicle: saline",39 % of control and 62 % of control
same,T/C,"dose: 140.0 mg/kg/injection, schedule: Q01DX001 (ip), vehicle: saline",98 % of control and 111 % of control
same,T/C,"dose: 140.0 mg/kg/injection, schedule: Q07DX002 (ip), vehicle: saline",91 % of control
same,T/C,"dose: 160.0 mg/kg/injection, schedule: Q01DX011 (ip), vehicle: saline",14 % of control
same,T/C,"dose: 160.0 mg/kg/injection, schedule: Q01DX011 (oral), vehicle: saline",41 % of control
same,T/C,"dose: 240.0 mg/kg/injection, schedule: Q03DX004 (ip), vehicle: saline",24 % of control and 38 % of control
same,T/C,"dose: 280.0 mg/kg/injection, schedule: Q07DX002 (ip), vehicle: saline",77 % of control
same,T/C,"dose: 320.0 mg/kg/injection, schedule: Q01DX011 (oral), vehicle: saline",9 % of control
same,T/C,"dose: 1120.0 mg/kg/injection, schedule: Q01DX001 (ip), vehicle: saline",58 % of control
CN(C)[C@@H]1C(=O)C(C(=O)NCNc2nc(=S)c3[nH]cnc3[nH]2)=C(O)[C@@]2(O)C(=O)C3=C(O)c4c(O)cccc4[C@@](C)(O)[C@H]3C[C@@H]12,T/C,"dose: 4.0 mg/kg/injection, schedule: Q01DX011 (ip), vehicle: carboxymethylcellulose (CMC)",52 % of control
same,T/C,"dose: 8.0 mg/kg/injection, schedule: Q01DX011 (ip), vehicle: carboxymethylcellulose (CMC)",26 % of control
same,T/C,"dose: 15.0 mg/kg/injection, schedule: Q01DX011 (ip), vehicle: carboxymethylcellulose (CMC)",2 % of control
same,T/C,"dose: 30.0 mg/kg/injection, schedule: Q01DX011 (ip), vehicle: carboxymethylcellulose (CMC)",1 % of control
same,T/C,"dose: 50.0 mg/kg/injection, schedule: Q01DX011 (ip), vehicle: carboxymethylcellulose (CMC)",1 % of control
Nc1ncnc2nc(/N=N/SCCC(=O)O)[nH]c12,T/C,"dose: 37.5 mg/kg/injection, schedule: Q01DX011 (ip), vehicle: saline",205 % of control
same,T/C,"dose: 75.0 mg/kg/injection, schedule: Q01DX011 (ip), vehicle: saline",123 % of control
same,T/C,"dose: 150.0 mg/kg/injection, schedule: Q01DX011 (ip), vehicle: saline",56 % of control
